According to PubChem BioAssay (NCI):
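Growth conditions: 96-well plates. Treatment: test compound, 48 hours, 5 concentrations. Analysis: linear interpolation between bracketing concentrations; unreached endpoints set to highest concentration. GI50 = concentration required for 50% inhibition of growth. At the TGI there is no net growth.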

Key:
Experiment in all cases: growth of human tumour cells (NCI), 48 h
[1] = system: UACC-62 melanoma
[2] = system: OVCAR-3 ovarian
[3] = system: KM12 colon
[4] = system: HCT-15 colon
[5] = system: RPMI-8226 leukemia
[6] = system: SK-OV-3 ovarian
[7] = system: PC-3 prostate
[8] = system: SN12C renal
[9] = system: CCRF-CEM leukemia
[10] = system: HS 578T breast
[11] = system: MALME-3M melanoma
[12] = system: DU-145 prostate
[13] = system: ACHN renal
[14] = system: SF-295 CNS
[15] = system: MDA-MB-231 breast
[16] = system: SNB-19 CNS
[17] = system: LOX IMVI melanoma
[18] = system: SW-620 colon
[19] = system: NCI/ADR-RES ovarian
[20] = system: HT29 colon
[21] = system: SNB-75 CNS
[22] = system: NCI-H23 lung
[23] = system: U251 CNS
[24] = system: A498 renal
[25] = system: UACC-257 melanoma
[26] = system: HL-60(TB) leukemia
[27] = system: SK-MEL-5 melanoma
[28] = system: SK-MEL-28 melanoma
[29] = system: CAKI-1 renal
[30] = system: BT-549 breast
[31] = system: SF-539 CNS
[32] = system: TK-10 renal
[33] = system: OVCAR-8 ovarian
[34] = system: K-562 leukemia
[35] = system: EKVX NSCLC
[36] = system: HCC-2998 colon
[37] = system: A549 NSCLC
[38] = system: OVCAR-5 ovarian
[39] = system: MDA-MB-435
[40] = system: UO-31 renal
[41] = system: IGROV1 ovarian
[42] = system: RXF 393 renal
[43] = system: M14 melanoma
[44] = system: MCF7 breast
[45] = system: SR leukemia
[46] = system: 786-0 renal
[47] = system: NCI-H226 lung
[48] = system: NCI-H522 lung
[49] = system: HCT-116 colon
[50] = system: MOLT-4 leukemia
[51] = system: OVCAR-4 ovarian
[52] = system: HOP-92 NSCLC
[53] = system: SF-268 CNS
[54] = system: HOP-62 NSCLC
[55] = system: COLO 205 colon
[56] = system: NCI-H460 lung
[57] = system: SK-MEL-2 melanoma

`COc1cc(/C=C2\CN(S(=O)(=O)c3ccccc3)C/C(=C\c3cc(CN4CCCCC4)c(O)c(OC)c3)C2=O)cc(CN2CCCCC2)c1O` was tested, and the GI50 [1] was 1.65 µM, the TGI [1] was 3.44 µM and the GI50 [2] was 1.72 µM. It also gave a TGI [2] of 3.25 µM, a GI50 [3] of 1.73 µM and a TGI [3] of 3.41 µM. The GI50 [4] was 1.79 µM, the TGI [4] was 3.78 µM and the GI50 [5] was 2.29 µM. It also gave a TGI [5] of 5.11 µM, a GI50 [6] of 1.93 µM and a TGI [6] of 3.85 µM. For the same compound, the GI50 [7] was 1.73 µM, the TGI [7] was 3.4 µM and the GI50 [8] was 1.83 µM. For the same compound, the TGI [8] was 3.63 µM, the GI50 [9] was 2.62 µM and the TGI [9] was 7.25 µM. The GI50 [10] was 1.63 µM, the TGI [10] was 4.31 µM and the GI50 [11] was 1.74 µM. It also gave a TGI [11] of 3.39 µM, a GI50 [12] of 1.73 µM and a TGI [12] of 3.19 µM. The GI50 [13] was 1.54 µM, the TGI [13] was 2.93 µM and the GI50 [14] was 2.25 µM. It also gave a TGI [14] of 5.01 µM, a GI50 [15] of 1.77 µM and a TGI [15] of 3.47 µM. The GI50 [16] was 2 µM and the TGI [16] was 4.58 µM.

Compound `CCOC(=O)N[C@H]1CCc2c(Br)c(OC)c(OC)c(OC)c2-c2ccc(SC)c(=O)cc21` has a GI50 [1] of less than 0.01 µM, a TGI [1] of 14.2 µM and a GI50 [17] of less than 0.01 µM. It also gave a TGI [17] of 12.5 µM, a GI50 [18] of less than 0.01 µM and a TGI [18] of 16.7 µM. The GI50 [2] was less than 0.01 µM, the GI50 [3] was less than 0.01 µM and the TGI [3] was 3.79 µM. The GI50 [19] was 0.025 µM, the TGI [19] was 7.58 µM and the GI50 [4] was less than 0.01 µM. For the same compound, the TGI [4] was 12.2 µM, the GI50 [5] was less than 0.01 µM and the TGI [5] was greater than 33.7 µM. For the same compound, the GI50 [20] was less than 0.01 µM, the TGI [20] was greater than 34.5 µM and the GI50 [21] was less than 0.01 µM. It also gave a TGI [21] of 16.1 µM, a GI50 [22] of less than 0.01 µM and a TGI [22] of 24 µM. The GI50 [23] was less than 0.01 µM, the TGI [23] was 14.1 µM and the GI50 [24] was less than 0.01 µM. It also gave a TGI [24] of less than 0.0115 µM, a GI50 [25] of 8.64 µM and a TGI [25] of 45.2 µM. The GI50 [26] was less than 0.01 µM, the TGI [26] was 0.0131 µM and the GI50 [27] was less than 0.01 µM. The TGI [27] was 0.0237 µM, the GI50 [28] was 8.06 µM and the TGI [28] was 23.4 µM. For the same compound, the GI50 [29] was less than 0.0228 µM, the TGI [29] was 19.6 µM and the GI50 [30] was 0.0115 µM. It also gave a TGI [30] of 8.97 µM, a GI50 [6] of less than 0.01 µM and a TGI [6] of 59.4 µM. It also gave a GI50 [31] of less than 0.01 µM, a TGI [31] of less than 0.0106 µM and a GI50 [7] of less than 0.01 µM. The TGI [7] was greater than 44.5 µM, the GI50 [32] was 3.8 µM and the TGI [32] was greater than 60.4 µM. It also gave a GI50 [33] of 0.0234 µM, a TGI [33] greater than 56.4 µM and a GI50 [8] of less than 0.0178 µM. For the same compound, the TGI [8] was 19.8 µM, the GI50 [9] was less than 0.01 µM and the TGI [9] was greater than 42 µM. The GI50 [34] was less than 0.01 µM, the TGI [34] was greater than 38.2 µM and the GI50 [35] was less than 0.0112 µM. For the same compound, the TGI [35] was greater than 83.2 µM, the GI50 [36] was less than 0.0155 µM and the TGI [36] was 1.41 µM. It also gave a GI50 [37] of less than 0.0184 µM, a TGI [37] greater than 43 µM and a GI50 [38] of 0.0357 µM. For the same compound, the TGI [38] was 25.6 µM, the GI50 [39] was less than 0.01 µM and the GI50 [40] was 0.131 µM. The TGI [40] was 15.2 µM, the GI50 [41] was 0.0189 µM and the TGI [41] was 16.2 µM. It also gave a GI50 [10] of less than 0.01 µM, a TGI [10] of 37.3 µM and a GI50 [42] of less than 0.01 µM. It also gave a TGI [42] of 13.8 µM, a GI50 [11] of less than 0.01 µM and a TGI [11] of 28.4 µM. The GI50 [43] was less than 0.0128 µM, the TGI [43] was 4.35 µM and the GI50 [44] was less than 0.01 µM. The TGI [44] was 12.7 µM, the GI50 [45] was less than 0.01 µM and the TGI [45] was greater than 37.3 µM. The GI50 [12] was less than 0.01 µM, the TGI [12] was 0.125 µM and the GI50 [13] was less than 0.01 µM. For the same compound, the TGI [13] was 15 µM, the GI50 [14] was less than 0.01 µM and the TGI [14] was 3.79 µM. The GI50 [46] was 0.0318 µM, the TGI [46] was 25.1 µM and the GI50 [15] was less than 0.01 µM. For the same compound, the TGI [15] was 5.17 µM, the GI50 [47] was less than 0.0165 µM and the TGI [47] was 13.9 µM. The GI50 [48] was less than 0.01 µM, the TGI [48] was 10.1 µM and the GI50 [16] was less than 0.01 µM. For the same compound, the TGI [16] was 26.5 µM, the GI50 [49] was less than 0.01 µM and the TGI [49] was 11.8 µM. For the same compound, the GI50 [50] was less than 0.0108 µM, the TGI [50] was greater than 45.3 µM and the GI50 [51] was 0.0608 µM. For the same compound, the TGI [51] was greater than 53.5 µM, the GI50 [52] was less than 0.0137 µM and the TGI [52] was 6.19 µM. The GI50 [53] was 0.0125 µM, the TGI [53] was 15 µM and the GI50 [54] was 0.0232 µM. For the same compound, the TGI [54] was 41.2 µM, the GI50 [55] was less than 0.01 µM and the TGI [55] was 0.0161 µM. It also gave a GI50 [56] of less than 0.01 µM and a TGI [56] of 1.61 µM.

With `C[C@@H]1OC(=O)C[C@H]2CC(=O)N(CCC3CN(S(=O)(=O)C(F)(F)F)c4ccccc43)C[C@@H]21` (some centres undefined) the TGI [1] was greater than 100 µM, the TGI [18] was greater than 100 µM and the TGI [2] was greater than 100 µM. The TGI [3] was greater than 100 µM, the TGI [57] was greater than 100 µM and the TGI [19] was greater than 100 µM. It also gave a TGI [4] greater than 100 µM, a TGI [5] greater than 100 µM and a TGI [20] greater than 100 µM. The TGI [22] was greater than 100 µM, the TGI [23] was greater than 100 µM and the TGI [24] was greater than 100 µM. For the same compound, the TGI [25] was greater than 100 µM, the TGI [27] was greater than 100 µM and the TGI [28] was greater than 100 µM. For the same compound, the TGI [29] was greater than 100 µM, the TGI [6] was greater than 100 µM and the TGI [7] was greater than 100 µM. The TGI [9] was greater than 100 µM, the TGI [34] was greater than 100 µM and the TGI [35] was greater than 100 µM. The TGI [36] was greater than 100 µM, the TGI [37] was greater than 100 µM and the TGI [38] was greater than 100 µM. It also gave a TGI [39] greater than 100 µM, a TGI [40] greater than 100 µM and a TGI [41] greater than 100 µM. For the same compound, the TGI [10] was greater than 100 µM, the TGI [42] was greater than 100 µM and the TGI [11] was greater than 100 µM. For the same compound, the TGI [43] was greater than 100 µM, the TGI [44] was greater than 100 µM and the TGI [45] was greater than 100 µM. It also gave a TGI [12] greater than 100 µM, a TGI [13] greater than 100 µM and a TGI [14] greater than 100 µM. For the same compound, the TGI [46] was greater than 100 µM, the TGI [15] was greater than 100 µM and the TGI [48] was greater than 100 µM. The TGI [16] was greater than 100 µM, the TGI [49] was greater than 100 µM and the TGI [50] was greater than 100 µM. It also gave a TGI [51] greater than 100 µM, a TGI [52] greater than 100 µM and a TGI [54] greater than 100 µM. For the same compound, the TGI [55] was greater than 100 µM and the TGI [56] was greater than 100 µM.
